Experimental data taken from patent EP4745145A1, “SALT OF THIAZOLOPYRAZINE COMPOUND OR CRYSTAL THEREOF AND USE THEREOF” (Simcere Zaiming Pharmaceutical Co., Ltd., priority 2023, dated 2025).

Assays:
DLD-1 BRCA2 (-/-) cells = test: Inhibition of tumor cell proliferation (CTG, 7 days); assay type: cell-based
Experimental: (§1) Brief introduction to experimental principle: After the compound was co-incubated with tumor cells for 7 days, the ATP in viable cells was quantified using the CTG kit from Promega to reflect the effect of the compound on tumor cell proliferation.
(§2) Experimental methods: DLD-1 parent cells or DLD-1 BRCA2 (-/-) cells were diluted with an RPMI 1640 medium containing 10% FBS and then added to a 96-well plate (90 µL/well), with the number of cells being 600/well or 1200/well, respectively, and incubated overnight in an incubator at 37 °C with 5% CO2. The test compound was diluted to different concentrations with dimethyl sulfoxide (DMSO) and then added to a 96-well plate, such that, in the reaction system, the compound was serially diluted 4-fold from the final concentration of 25 µM. The concentration range of the compound was from 25 µM to 0.0004 µM, and the final concentration of DMSO was 0.25% v/v. After incubation for 7 days, 50 µL/well of CTG was added, and the mixture was incubated at room temperature for 10 min. The luminescence (Lum) signal value was read using an Envision microplate reader, and the inhibition rate and half inhibitory concentration (IC50) were calculated.
(§3) A Blank well and a DMSO well were set in the experiment. […] Inhibition rate = 100 × (Lummax−Lumcompound)/(Lummax−Lummin)% [formula] wherein Lummax refers to the luminescence signal value of the well containing cells and 0.25% v/v DMSO, and Lumcompound refers to the luminescence signal value of the well containing the compound and cells. Lummin refers to the luminescence signal value of the well containing the medium and 0.25% v/v DMSO.

DLD-1 parent cells = test: as above; assay type: cell-based; details: Homo sapiens, DLD-1, 168 h; 7 days incubation
Experimental: as §1, §2, §3

[1] = tested on: POLQ-mediated MMEJ pathway; test: Inhibition of cellular MMEJ pathway (NanoLuciferase reporter in HEK293T cells); assay type: cell-based; details: 24 h
Experimental: Brief introduction to experimental principle: POLQ is a key protein in the repair process of cellular MMEJ. The NanoLuciferase MMEJ repair reporter system was transferred into HEK293T cells. When the MMEJ repair pathway was normally performed in the cells, the NanoLuciferase reporter protein was correctly expressed, and the cell luminescence signal could be detected. The decrease in cell luminescence was measured using a BMG multifunctional microplate reader from BMG LABTECH to reflect the inhibition of the compound on the cellular MMEJ pathway.
Experimental methods: The test compound was diluted to different concentrations with dimethyl sulfoxide (DMSO) using an Echo 655 pipetting system and transferred to a 384-well plate. In the reaction system, the compound was serially diluted 3-fold from the final concentration of 10 µM. The final concentration of DMSO was 0.1%. HEK293T cells were collected, an MMEJ luciferase […] was transferred to the cells using a Neon transfection system, and the transfected HEK293T cells at 4000 cells/well were diluted with a DMEM medium containing 10% FBS and added to a 384-well plate (25 µL/well).
The compound inhibition rate was calculated and fitted using XLfit software to give the IC50 of the compounds. A Blank well and a DMSO well were set in the experiment.

hepatocytes = test: Metabolic stability in hepatocytes; assay type: in vitro ADME; details: hepatocytes of various species
Experimental: The metabolic stability of the compounds of the present disclosure in hepatocytes was determined by the following test method.
• 1. Human hepatocytes (Biopredic BQHPCH10), cynomolgus monkey hepatocytes (RILD HP-SXH-02M), Beagle dog hepatocytes (BioIVT M00205), SD rat hepatocytes (BioIVT M00005), and CD-1 mouse hepatocytes (BioIVT M00505) • 2. AOPI stain (Nexcelom 200710-01-01) • 3. Dexamethasone (NIFDC 100129-201506) • 4. DPBS (10×) (Gibco by Life Technologies 2060570) • 5. Fetal bovine serum (FBS) (Corning 35081001) • 6. GlutaMAXTM-1 (100×) (Gibco by Life Technologies 2186980) • 7. HEPES (Sigma RNBJ1276) • 8. Human recombinant insulin (Gibco by Life Technologies 2090407) • 9. Isotonic Percoll (GE Healthcare 10288259) • 10. Verapamil (Sigma MKBV4993V) • 11. Williams' Medium E (Sigma RNBJ3314) • 12. […]
All data were calculated by Microsoft Excel software. The peak area was detected through an extracted ion chromatogram. The in vitro half-life (t1/2) of the compound was determined by performing linear fitting of the natural logarithm of elimination percent of the compound and time.
In vitro half-life (t1/2) was calculated by the slope: in vitro t1/2 = 0.693/k [formula]
The in vitro intrinsic clearance (unit: µL/min/mg protein) was calculated using the following formula: in vitro CLint = k × volume of incubation (μL)/amount of proteins (mg) [formula] […]

SMILES: COc1ccc(Cl)cc1-c1cc(C)ncc1C(=O)Nc1nc2ncc(-c3ccc(C#N)cc3)nc2s1 [Compound of formula I, 4-(5-chloro-2-methoxyphenyl)-N-[6-(4-cyanophenyl)thiazolo[4,5-b]pyrazin-2-yl]-6-methylnicotinamide]
- inhibitory effect on tumor cells with BRCA2 mutation (DLD-1 BRCA2 (-/-) cells): good inhibitory effect
- selectivity (DLD-1 BRCA2 (-/-) cells): good selectivity
- IC50 (DLD-1 BRCA2 (-/-) cells; Homo sapiens, DLD-1, 168 h, 7 days incubation): < 200 nM
- IC50 (DLD-1 parent cells): ≥ 10 µM
- inhibitory activity on the POLQ-mediated MMEJ pathway in cells [1]: strong inhibitory activity
- metabolic stability in hepatocytes (hepatocytes): metabolically stable
